The target in experiment [1] is T1, MT2 receptor (Homo sapiens, UniProt P49286).
T1 sequence (P49286 1-362): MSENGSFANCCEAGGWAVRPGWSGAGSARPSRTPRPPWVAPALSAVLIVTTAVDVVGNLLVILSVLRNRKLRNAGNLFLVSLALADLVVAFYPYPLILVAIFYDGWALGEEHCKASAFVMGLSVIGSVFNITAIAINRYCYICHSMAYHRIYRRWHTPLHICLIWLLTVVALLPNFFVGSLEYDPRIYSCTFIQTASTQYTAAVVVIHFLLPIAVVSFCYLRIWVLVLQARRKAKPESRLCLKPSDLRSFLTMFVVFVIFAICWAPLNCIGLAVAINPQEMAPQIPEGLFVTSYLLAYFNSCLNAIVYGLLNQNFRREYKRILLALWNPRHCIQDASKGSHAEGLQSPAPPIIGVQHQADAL
In words: Melatonin MT2 receptor binding study. On the procedure: (§1) The MT1 or MT2 receptor binding experiments are carried out using 2-[^125 I]-iodomelatonin as reference radioligand. The radioactivity retained is determined using a liquid scintillation counter.
(§2) Competitive binding experiments are then carried out in triplicate using the various test compounds. A range of different concentrations is tested for each compound. The results enable the binding affinities of the compounds tested (Ki) to be determined.

The target in experiment [2] is MT1 receptor (Homo sapiens, UniProt P48039). Kind of experiment: Melatonin MT1 receptor binding study. Here is the method:
as §1, §2

The structures appear in SMILES notation.

MT1 receptor, sequence (P48039 whole entry): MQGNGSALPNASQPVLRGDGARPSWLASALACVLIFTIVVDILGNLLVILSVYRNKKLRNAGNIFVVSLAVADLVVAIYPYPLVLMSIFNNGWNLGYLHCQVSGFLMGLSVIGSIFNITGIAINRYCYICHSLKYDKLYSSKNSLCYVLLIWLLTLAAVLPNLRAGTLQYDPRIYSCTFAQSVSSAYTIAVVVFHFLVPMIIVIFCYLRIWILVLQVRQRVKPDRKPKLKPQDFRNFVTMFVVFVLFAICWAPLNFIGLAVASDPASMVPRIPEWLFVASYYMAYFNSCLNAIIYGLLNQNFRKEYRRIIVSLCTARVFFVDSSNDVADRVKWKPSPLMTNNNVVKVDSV

With `COc1ccc2cccc(C(CO)CNC(=O)CF)c2c1` (centres unmarked) [Example 1, 2-Fluoro-N-[3-hydroxy-2-(7-methoxy-1-naphthyl)propyl]acetamide], the Ki came out at 0.5 nM in experiment [1] and 4.7 nM in experiment [2].
